In patent US9629828B2, “Methods of treating traveler's diarrhea and hepatic encephalopathy” (priority 2008, dated 2017):

Key:
[1] = system: liver transplant patients who presented with HE; experiment: Chart review of 39 liver transplant patients with HE; format: in vivo, human
[2] = system: patients with HE; format: in vivo, human
From the text: Total number of hospitalizations, duration of hospitalizations, HE endpoints, and cost of therapy were compared between the 2 treatment regimens.

[3] = male, human, in vivo
[4] = system: patients with HE; settings: rifaximin 1200 mg/day, neomycin 3 g/day; cited from earlier work

## OC[C@H]1O[C@@H](O[C@@H]2[C@@H](CO)OC(O)(CO)[C@H]2O)[C@H](O)[C@@H](O)[C@H]1O (mixture of isomers) [lactulose]
[1]; 15 rifaximin, 24 lactulose patients
  hospitalizations reported: Nineteen
[1]; human, in vivo
  average length of stay: 5.0 days
[2]; end of treatment period
  patients with Conn scores of 3 or 4: 25%
[2]; human, in vivo
  days hospitalized: 7.3 days
  patients with asterixis at end of treatment period: 93%
  patients with diarrhea, flatulence, and abdominal pain: significantly more patients
[2]; rifaximin 400 mg 3 times/day, lactulose 30 mL twice daily
  hospitalizations: 1.6

## CO[C@H]1/C=C/O[C@@]2(C)Oc3c(C)c(O)c4c(O)c(c5c(nc6cc(C)ccn65)c4c3C2=O)NC(=O)/C(C)=C\C=C\[C@H](C)[C@H](O)[C@@H](C)[C@@H](O)[C@@H](C)[C@H](OC(C)=O)[C@@H]1C [14C-Rifaximin]
[3]
  amount of radioactivity in urine (bound): < 0.4 % of the dose

## neomycin
[4]
  efficacy in patients with HE: comparable efficacy
